Assay results reported in patent US8530434B2, “Nitroxide free radical synergized antineoplastic agents” (The Trustees of California State University, priority 2006, dated 2013).
“Also recorded” adds a separate entry of the source.

How the values were obtained:
[1] = Solubility in D2O (sample preparation for NMR)
Excerpt: (§1) We did the ^1H and ^31P NMR experiments at a 600 MHz NMR spectrometer for all three samples.

[2] = system: short single strand DNA units comprising of 3′-ATCGT-5′; assay: 1H and 31P NMR study of interaction with short single strand DNA; assay type: binding; conditions: 1:1 molar ratio with DNA in DMSO-d6, 600 MHz NMR
Excerpt: as §1

[3] = system: MCF-7, human breast cancer cells and KB, human liver cancer cells; assay: LDH measurement of cytotoxicity; conditions: for % cytotoxicity: LDH assay, 72 hours incubation, same conditions and same concentrations, rank among the four treatments, cell line not specified
Description: MCF-7, human breast cancer cells and KB, human liver cancer cells were maintained in an RPMI 1640 medium, which was supplemented with 10% (v/v) heat-inactivated FBS and 1% (v/v) penicillin-streptomycin (100 U/mL penicillin G and 100 μg/mL streptomycin). The cells were incubated and then allowed to grow into a monolayer at a Petri dish at 37° C. in 5% CO2 and 90% relative humidity. The cells were detached by trypsinisation. Specifically, to detach the monolayer of cells, the medium was removed from the cell culture dish and the cells were washed by PBS buffer solution. Then 1 mL of the enzyme of trypsin was transferred to the cell dish and then the dish was incubated for 3 min. After the incubation, we transferred 4 mL of the RPMI 1640 medium to the cell dish and pipetted the cell suspension up and down to mix them well. The cell suspension was examined by inverted phase contrast microscope to make sure cells were separated into a single cell suspension. We transferred the cell suspension to a 10 mL-tube and centrifuged it to separate cell pellet from the medium. The cells were washed twice in the RPMI 1640 medium by centrifugation at 300×g for 5 min, and then the washed cells were re-suspended in 10 mL of medium. Cell number and viability were determined by using a dye of trypan blue, a special counting chamber, the hemocytometer and microscope. The cell density was calculated by the formula, cell concentration=(N1+N2+N3+N4+N5)×4×10^3 cells/mL, where N1 to N5 denote the counting numbers in the chamber. The cell suspension was diluted to a final concentration of 100,000 cells/mL in the RPMI 1640 medium.
The cells were initially seeded in a 96-well plate with a cell density of 10,000 cells per well by transferring 100 μL of 100,000 cells/mL suspension to each well using a multi-pipette. The 96-well plate was incubated for 24 hours at 37° C. in a humidified, 5% CO2 atmosphere. After incubation of 24 h, the growth medium was removed and replaced with 100 μL of fresh medium with different concentrations of drugs in 3 repeats.
Performed serial two-fold dilution from Row H to Row A. Use extra column as the negative control containing 100 μL of the medium and cells only. Before the drug solutions were administered, removed the growth medium from each well and then replace 100 μL of each drug solution. Each concentration had 3 repeats. Incubate the plate for 72 hours.
10 μl of Lysis Solution was added from row A to H, and incubated for 45 minutes in a humidified chamber at 37° C., under 5% CO2.
50 μl supernatant was transferred from all wells to a fresh 96-well flat bottom enzymatic assay plate. […] 50 μl Stop Solution was added to each well, and the absorbances were recorded at a wavelength of 490 nm within one hour after adding the stop solution.

SMILES	solubility in D2O [1]	interaction with DNA (changes of 1H and 31P NMR spectra) [2]	% cytotoxicity [3]	potency compared with co-administration of the two drugs ([3]; summary statement)
CC1(C)CC(OC(=O)CCCc2ccc(N(CCCl)CCCl)cc2)CC(C)(C)N1[O] [chlorambucil-TEMPOL adduct]	weakly soluble	interact with the DNA collaboratively	the most % cytotoxicity	higher potency than mere co-administration of the two drugs
CC1(C)CC(O)CC(C)(C)N1[O] [TEMPOL, 4-hydroxy-2,2,6,6-tetramethylpiperidine-N-oxyl]	–	interacts with DNA	the least; also recorded: very low % cytotoxicity	–
O=C(O)CCCc1ccc(N(CCCl)CCCl)cc1 [chlorambucil]	weakly soluble	interaction of the alkylating agent with DNA	the third	–
